In US11572369B2, “Bicyclic pyridine compositions and methods of using the same for cancer therapy” (UNIVERSITY OF SOUTH CAROLINA, priority 2019, dated 2023):

How the values were obtained:
Assay in all cases: KINOMEscan
Assay type in all cases: binding
Settings in all cases: 2000 nM
PDPK1 = target: T1, PDPK1 (Homo sapiens, UniProt O15530)
T1 construct: DNA label (for qPCR read-out); purchased DiscoveRx (KINOMEscan scanMAX service)

PCTK3 = target: T2, PCTK3 (Homo sapiens, UniProt Q07002)
T2 construct: DNA label (for qPCR read-out); purchased DiscoveRx (KINOMEscan scanMAX service)

[1] = target: T3, ABL1(F317I)-nonphosphorylated (Homo sapiens, UniProt P00519, F317I)
T3 construct: DNA label (qPCR read-out); purchased DiscoverX (KINOMEscan service)

GRK3 = target: T4, GRK3 (Homo sapiens, UniProt P35626)
T4 construct: DNA label (for qPCR read-out); purchased DiscoveRx (KINOMEscan scanMAX panel, contract assay)

IGF1R = target: T5, IGF1R (Homo sapiens, UniProt P08069)
T5 construct: DNA label (qPCR read-out); purchased KINOMEscan (DiscoveRx) ScanMAX panel

EPHA3 = target: T6, EPHA3 (Homo sapiens, UniProt P29320)
T6 construct: purchased DiscoveRx (KINOMEscan scanMAX panel)

PIK3CA(E542K) = target: T7, PIK3CA(E542K) (Homo sapiens, UniProt P42336, E542K)
T7 construct: DNA label; purchased DiscoveRx (KINOMEscan scanMAX panel)

EGFR(G719C) = target: T8, EGFR(G719C) (Homo sapiens, UniProt P00533, G719C)
T8 construct: purchased DiscoveRx (KINOMEscan scanMAX panel)

ZAK = ZAK (Homo sapiens, UniProt Q9NYL2)
CHEK2 = target: T9, CHEK2 (Homo sapiens, UniProt O96017)
T9 construct: DNA label (for qPCR read-out); purchased DiscoveRx (KINOMEscan scanMAX service)

ERK4 = target: T10, ERK4 (Homo sapiens, UniProt P31152)
T10 construct: DNA label (qPCR read-out); purchased DiscoveRx (KINOMEscan ScanMAX panel)

CLK1 = target: T11, CLK1 (Homo sapiens, UniProt P49759)
T11 construct: DNA label (for qPCR read-out); purchased DiscoveRx (KINOMEscan scanMAX service)

CSNK2A2 = target: T12, CSNK2A2 (Homo sapiens, UniProt P19784)
T12 construct: DNA label; purchased DiscoveRx (KINOMEscan scanMAX panel)

MAP3K3 = MAP3K3 (Homo sapiens, UniProt Q99759)
SIK2 = target: T13, SIK2 (Homo sapiens, UniProt Q9H0K1)
T13 construct: purchased KINOMEscan (DiscoveRx)

PIM3 = target: T14, PIM3 (Homo sapiens, UniProt Q86V86)
T14 construct: DNA label (qPCR read-out); purchased KINOMEscan (DiscoveRx) panel

TNNI3K = target: T15, TNNI3K (Homo sapiens, UniProt Q59H18)
T15 construct: DNA label (qPCR read-out); purchased KINOMEscan (DiscoveRx) ScanMAX panel

NEK1 = target: T16, NEK1 (Homo sapiens, UniProt Q96PY6)
T16 construct: DNA label (for qPCR read-out); purchased KINOMEscan scanMAX panel (DiscoveRx)

TGFBR2 = target: T17, TGFBR2 (Homo sapiens, UniProt P37173)
T17 construct: DNA label (qPCR read-out); purchased KINOMEscan (DiscoveRx) ScanMAX panel

SLK = target: T18, SLK (Homo sapiens, UniProt Q9H2G2)
T18 construct: purchased KINOMEscan (DiscoveRx)

EPHB3 = target: T19, EPHB3 (Homo sapiens, UniProt P54753)
T19 construct: purchased DiscoveRx (KINOMEscan scanMAX panel)

EPHA8 = target: T20, EPHA8 (Homo sapiens, UniProt P29322)
T20 construct: purchased DiscoveRx (KINOMEscan scanMAX panel)

ULK3 = target: T21, ULK3 (Homo sapiens, UniProt Q6PHR2)
T21 construct: DNA label (for qPCR read-out); purchased DiscoveRx (KINOMEscan scanMAX panel)

KIT(A829P) = target: T22, KIT(A829P) (Homo sapiens, UniProt P10721, A829P)
T22 construct: DNA label (for qPCR read-out); purchased DiscoveRx (KINOMEscan scanMAX panel)

VEGFR2 = target: T23, VEGFR2 (Homo sapiens, UniProt P35968)
T23 construct: DNA label (for qPCR read-out); purchased DiscoveRx (KINOMEscan scanMAX panel)

MST1 = target: T24, MST1 (Homo sapiens, UniProt Q13043)
T24 construct: DNA label (qPCR read-out); purchased KINOMEscan scanMAX panel (DiscoveRx)

KIT-autoinhibited = target: T25, KIT-autoinhibited (Homo sapiens, UniProt P10721)
T25 construct: purchased KINOMEscan (DiscoveRx) panel service

CSNK1G3 = target: T26, CSNK1G3 (Homo sapiens, UniProt Q9Y6M4)
T26 construct: DNA label; purchased DiscoveRx (KINOMEscan scanMAX panel)

CAMK2G = target: T27, CAMK2G (Homo sapiens, UniProt Q13555)
T27 construct: DNA label (qPCR read-out); purchased KINOMEscan (ScanMAX panel service)

EGFR(L858R) = target: T28, EGFR(L858R) (Homo sapiens, UniProt P00533, L858R)
T28 construct: purchased DiscoveRx (KINOMEscan scanMAX panel)

TEC = target: T29, TEC (Homo sapiens, UniProt P42680)
T29 construct: DNA label (for qPCR read-out); purchased DiscoveRx (KINOMEscan scanMAX panel, contract assay)

EGFR(S752-I759del) = target: T30, EGFR(S752-I759del) (Homo sapiens, UniProt P00533, DEL752-759)
T30 construct: purchased DiscoveRx (KINOMEscan scanMAX panel)

TRPM6 = target: T31, TRPM6 (Homo sapiens, UniProt Q9BX84)
T31 construct: DNA label (for qPCR read-out); purchased DiscoveRx (KINOMEscan scanMAX panel)

MLK1 = target: T32, MLK1 (Homo sapiens, UniProt P80192)
T32 construct: DNA label (qPCR read-out); purchased KINOMEscan scanMAX panel (DiscoveRx)

ROCK1 = target: T33, ROCK1 (Homo sapiens, UniProt Q13464)
T33 construct: DNA label (qPCR read-out); purchased DiscoveRx (KINOMEscan ScanMAX panel)

T17 sequence (P37173 23-567): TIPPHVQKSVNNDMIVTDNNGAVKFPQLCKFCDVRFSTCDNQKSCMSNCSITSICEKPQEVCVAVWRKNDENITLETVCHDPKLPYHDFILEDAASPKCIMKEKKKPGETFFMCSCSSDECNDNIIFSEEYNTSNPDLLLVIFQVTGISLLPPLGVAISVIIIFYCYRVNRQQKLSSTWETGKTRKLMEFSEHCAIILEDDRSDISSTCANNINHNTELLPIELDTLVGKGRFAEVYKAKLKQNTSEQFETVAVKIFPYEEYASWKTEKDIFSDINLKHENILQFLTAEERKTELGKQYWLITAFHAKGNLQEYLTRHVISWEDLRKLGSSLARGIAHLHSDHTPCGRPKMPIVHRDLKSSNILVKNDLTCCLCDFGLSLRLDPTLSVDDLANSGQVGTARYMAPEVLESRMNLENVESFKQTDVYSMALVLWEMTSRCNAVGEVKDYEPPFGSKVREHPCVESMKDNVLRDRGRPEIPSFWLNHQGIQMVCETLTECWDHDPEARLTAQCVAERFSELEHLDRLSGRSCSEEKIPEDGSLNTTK
T21 sequence (Q6PHR2 whole entry): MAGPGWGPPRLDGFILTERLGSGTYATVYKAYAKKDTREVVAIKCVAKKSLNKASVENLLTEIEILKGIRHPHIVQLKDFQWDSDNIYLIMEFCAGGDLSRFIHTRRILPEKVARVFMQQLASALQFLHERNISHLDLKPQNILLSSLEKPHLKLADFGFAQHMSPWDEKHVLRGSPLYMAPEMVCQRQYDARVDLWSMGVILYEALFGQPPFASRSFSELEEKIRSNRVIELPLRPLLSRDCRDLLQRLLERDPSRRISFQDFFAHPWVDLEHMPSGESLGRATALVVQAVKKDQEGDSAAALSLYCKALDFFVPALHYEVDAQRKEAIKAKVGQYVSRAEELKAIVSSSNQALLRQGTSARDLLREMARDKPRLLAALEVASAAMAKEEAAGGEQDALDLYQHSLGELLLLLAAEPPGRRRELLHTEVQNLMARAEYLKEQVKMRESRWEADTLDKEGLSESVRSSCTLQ
T6 sequence (P29320 21-983): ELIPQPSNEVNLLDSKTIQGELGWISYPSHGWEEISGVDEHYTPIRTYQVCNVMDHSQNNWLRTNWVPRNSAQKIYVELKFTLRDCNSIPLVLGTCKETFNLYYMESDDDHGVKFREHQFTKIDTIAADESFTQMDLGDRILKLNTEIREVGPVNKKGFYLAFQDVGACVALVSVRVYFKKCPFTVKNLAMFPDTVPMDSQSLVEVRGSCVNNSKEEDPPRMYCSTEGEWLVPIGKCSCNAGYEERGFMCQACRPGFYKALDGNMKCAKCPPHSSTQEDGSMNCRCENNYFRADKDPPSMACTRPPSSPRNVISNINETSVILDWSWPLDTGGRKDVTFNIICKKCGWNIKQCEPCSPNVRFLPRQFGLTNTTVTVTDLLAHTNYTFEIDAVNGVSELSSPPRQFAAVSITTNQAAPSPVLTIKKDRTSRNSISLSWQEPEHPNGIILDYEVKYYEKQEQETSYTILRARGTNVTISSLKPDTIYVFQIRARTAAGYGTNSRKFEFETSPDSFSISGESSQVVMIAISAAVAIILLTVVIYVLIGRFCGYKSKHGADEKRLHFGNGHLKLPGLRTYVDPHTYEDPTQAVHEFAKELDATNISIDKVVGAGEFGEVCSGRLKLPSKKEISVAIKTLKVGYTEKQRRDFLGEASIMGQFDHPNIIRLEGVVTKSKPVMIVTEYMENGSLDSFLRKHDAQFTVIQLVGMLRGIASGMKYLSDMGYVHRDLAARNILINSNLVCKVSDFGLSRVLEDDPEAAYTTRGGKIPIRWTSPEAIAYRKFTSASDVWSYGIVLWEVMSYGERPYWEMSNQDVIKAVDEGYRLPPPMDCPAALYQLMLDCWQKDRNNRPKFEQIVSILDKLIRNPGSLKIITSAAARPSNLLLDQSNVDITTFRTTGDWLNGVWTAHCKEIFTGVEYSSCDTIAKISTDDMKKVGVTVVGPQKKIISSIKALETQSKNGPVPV
ZAK, sequence (Q9NYL2 whole entry): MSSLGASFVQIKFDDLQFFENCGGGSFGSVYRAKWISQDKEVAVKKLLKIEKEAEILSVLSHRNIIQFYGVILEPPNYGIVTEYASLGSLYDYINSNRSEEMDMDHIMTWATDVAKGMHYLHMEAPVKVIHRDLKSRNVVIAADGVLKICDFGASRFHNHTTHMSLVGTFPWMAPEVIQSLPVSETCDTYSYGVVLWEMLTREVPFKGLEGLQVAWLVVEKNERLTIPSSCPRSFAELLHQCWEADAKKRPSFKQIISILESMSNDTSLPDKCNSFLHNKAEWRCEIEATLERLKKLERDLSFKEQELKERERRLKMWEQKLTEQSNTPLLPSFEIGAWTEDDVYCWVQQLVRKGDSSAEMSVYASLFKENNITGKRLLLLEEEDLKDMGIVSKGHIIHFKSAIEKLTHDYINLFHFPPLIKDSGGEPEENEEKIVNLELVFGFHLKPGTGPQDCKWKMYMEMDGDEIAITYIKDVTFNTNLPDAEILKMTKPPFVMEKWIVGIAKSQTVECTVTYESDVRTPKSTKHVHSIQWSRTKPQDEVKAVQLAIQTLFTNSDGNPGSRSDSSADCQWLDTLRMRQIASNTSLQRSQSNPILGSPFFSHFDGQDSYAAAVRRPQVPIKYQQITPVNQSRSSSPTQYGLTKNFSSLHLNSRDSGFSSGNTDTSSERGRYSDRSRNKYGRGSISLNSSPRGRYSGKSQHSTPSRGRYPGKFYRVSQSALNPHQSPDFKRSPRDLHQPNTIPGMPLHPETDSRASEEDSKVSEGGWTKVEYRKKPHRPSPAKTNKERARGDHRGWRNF
T22 sequence (P10721 26-976 A829P): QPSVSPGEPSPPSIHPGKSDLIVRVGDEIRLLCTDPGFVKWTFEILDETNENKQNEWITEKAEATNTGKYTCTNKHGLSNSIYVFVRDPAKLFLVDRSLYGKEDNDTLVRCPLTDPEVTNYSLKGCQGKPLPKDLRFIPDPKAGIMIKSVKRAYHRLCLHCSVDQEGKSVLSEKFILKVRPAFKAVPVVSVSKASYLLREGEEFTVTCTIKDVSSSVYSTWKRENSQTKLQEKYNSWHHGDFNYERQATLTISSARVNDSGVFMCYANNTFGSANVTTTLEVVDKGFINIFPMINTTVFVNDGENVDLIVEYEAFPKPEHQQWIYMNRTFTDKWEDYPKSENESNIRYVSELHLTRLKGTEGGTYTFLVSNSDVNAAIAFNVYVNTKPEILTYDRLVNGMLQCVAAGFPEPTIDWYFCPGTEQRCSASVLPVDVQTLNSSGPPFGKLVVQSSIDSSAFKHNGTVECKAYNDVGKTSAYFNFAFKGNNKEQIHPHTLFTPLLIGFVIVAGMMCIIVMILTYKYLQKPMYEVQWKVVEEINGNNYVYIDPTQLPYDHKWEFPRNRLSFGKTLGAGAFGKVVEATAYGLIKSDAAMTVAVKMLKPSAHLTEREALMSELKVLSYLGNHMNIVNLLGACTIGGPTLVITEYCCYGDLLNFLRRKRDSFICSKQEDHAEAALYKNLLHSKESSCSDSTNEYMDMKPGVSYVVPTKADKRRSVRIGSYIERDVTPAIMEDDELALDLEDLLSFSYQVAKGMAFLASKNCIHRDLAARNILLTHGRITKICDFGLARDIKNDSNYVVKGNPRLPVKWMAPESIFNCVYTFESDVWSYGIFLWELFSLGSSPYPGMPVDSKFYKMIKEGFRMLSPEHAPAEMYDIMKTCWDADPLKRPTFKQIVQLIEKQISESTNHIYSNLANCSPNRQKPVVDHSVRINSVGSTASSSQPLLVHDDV
T1 sequence (O15530 whole entry): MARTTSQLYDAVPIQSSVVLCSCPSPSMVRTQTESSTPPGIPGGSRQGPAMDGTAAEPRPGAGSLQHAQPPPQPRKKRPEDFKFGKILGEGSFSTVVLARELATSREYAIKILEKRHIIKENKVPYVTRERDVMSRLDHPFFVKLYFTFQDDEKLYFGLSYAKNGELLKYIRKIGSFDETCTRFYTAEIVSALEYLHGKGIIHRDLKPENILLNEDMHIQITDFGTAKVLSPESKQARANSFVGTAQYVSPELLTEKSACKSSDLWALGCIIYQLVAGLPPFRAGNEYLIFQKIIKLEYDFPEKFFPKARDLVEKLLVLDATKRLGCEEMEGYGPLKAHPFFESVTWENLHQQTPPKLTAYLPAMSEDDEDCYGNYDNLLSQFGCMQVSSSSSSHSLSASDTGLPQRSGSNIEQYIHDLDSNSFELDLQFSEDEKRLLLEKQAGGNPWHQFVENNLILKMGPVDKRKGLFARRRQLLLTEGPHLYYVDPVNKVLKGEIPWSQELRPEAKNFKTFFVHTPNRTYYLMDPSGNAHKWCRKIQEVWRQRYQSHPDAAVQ
T2 sequence (Q07002 whole entry): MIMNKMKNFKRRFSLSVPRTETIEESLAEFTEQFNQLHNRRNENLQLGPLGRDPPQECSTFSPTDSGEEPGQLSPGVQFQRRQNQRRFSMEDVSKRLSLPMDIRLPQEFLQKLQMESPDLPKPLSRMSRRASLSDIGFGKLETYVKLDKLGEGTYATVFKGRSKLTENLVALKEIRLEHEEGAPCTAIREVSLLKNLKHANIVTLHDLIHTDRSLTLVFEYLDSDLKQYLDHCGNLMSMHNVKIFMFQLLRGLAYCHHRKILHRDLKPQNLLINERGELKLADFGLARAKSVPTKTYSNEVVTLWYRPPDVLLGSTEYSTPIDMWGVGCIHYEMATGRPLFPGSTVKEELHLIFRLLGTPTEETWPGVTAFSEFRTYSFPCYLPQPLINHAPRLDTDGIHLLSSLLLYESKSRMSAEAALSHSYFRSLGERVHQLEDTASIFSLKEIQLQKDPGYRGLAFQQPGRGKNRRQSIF

CN(C)C(=O)c1ccc(N2CCCN(c3ccnc4sc(C(N)=O)c(N)c34)CC2)cc1 [15u, 3-amino-4-(4-(4-(dimethylcarbamoyl)phenyl)-1,4-diazepan-1-yl)thieno[2,3-b]pyridine-2-carboxamide]
% Ctrl (PDPK1): 100 % Ctrl | % Ctrl (PCTK3): 100 % Ctrl | % Ctrl [1]: 100 % Ctrl | % Ctrl (GRK3): 99 % Ctrl | % Ctrl (IGF1R): 92 % Ctrl | % Ctrl (EPHA3): 100 % Ctrl | % Ctrl (PIK3CA(E542K)): 92 % Ctrl | % Ctrl (EGFR(G719C)): 97 % Ctrl | % Ctrl (ZAK): 94 % Ctrl | % Ctrl (CHEK2): 92 % Ctrl | % Ctrl (ERK4): 72 % Ctrl | % Ctrl (CLK1): 88 % Ctrl | % Ctrl (CSNK2A2): 92 % Ctrl | % Ctrl (MAP3K3): 100 % Ctrl | % Ctrl (SIK2): 96 % Ctrl | % Ctrl (PIM3): 89 % Ctrl | % Ctrl (TNNI3K): 100 % Ctrl | % Ctrl (NEK1): 80 % Ctrl | % Ctrl (TGFBR2): 100 % Ctrl | % Ctrl (SLK): 56 % Ctrl | % Ctrl (EPHB3): 96 % Ctrl | % Ctrl (EPHA8): 94 % Ctrl | % Ctrl (ULK3): 96 % Ctrl | % Ctrl (KIT(A829P)): 97 % Ctrl | % Ctrl (VEGFR2): 67 % Ctrl | % Ctrl (MST1): 100 % Ctrl | % Ctrl (KIT-autoinhibited): 90 % Ctrl | % Ctrl (CSNK1G3): 95 % Ctrl | % Ctrl (CAMK2G): 100 % Ctrl | % Ctrl (EGFR(L858R)): 99 % Ctrl | % Ctrl (TEC): 91 % Ctrl | % Ctrl (EGFR(S752-I759del)): 86 % Ctrl | % Ctrl (TRPM6): 100 % Ctrl | % Ctrl (MLK1): 95 % Ctrl | % Ctrl (ROCK1): 77 % Ctrl

[2H]C([2H])([2H])N(C(=O)c1ccc(N2CCCN(c3ccnc4sc(C(N)=O)c(N)c34)CC2)cc1)C([2H])([2H])[2H] [15u_D6, 3-amino-4-(4-(4-(bis(methyl-d3)carbamoyl)phenyl)-1,4-diazepan-1-yl)thieno[2,3-b]pyridine-2-carboxamide]
% Ctrl (PDPK1): 96 % Ctrl | % Ctrl (PCTK3): 100 % Ctrl | % Ctrl [1]: 93 % Ctrl | % Ctrl (GRK3): 87 % Ctrl | % Ctrl (IGF1R): 91 % Ctrl | % Ctrl (EPHA3): 87 % Ctrl | % Ctrl (PIK3CA(E542K)): 74 % Ctrl | % Ctrl (EGFR(G719C)): 100 % Ctrl | % Ctrl (ZAK): 100 % Ctrl | % Ctrl (CHEK2): 92 % Ctrl | % Ctrl (ERK4): 100 % Ctrl | % Ctrl (CLK1): 68 % Ctrl | % Ctrl (CSNK2A2): 100 % Ctrl | % Ctrl (MAP3K3): 72 % Ctrl | % Ctrl (SIK2): 100 % Ctrl | % Ctrl (PIM3): 98 % Ctrl | % Ctrl (TNNI3K): 100 % Ctrl | % Ctrl (NEK1): 96 % Ctrl | % Ctrl (TGFBR2): 100 % Ctrl | % Ctrl (SLK): 54 % Ctrl | % Ctrl (EPHB3): 94 % Ctrl | % Ctrl (EPHA8): 83 % Ctrl | % Ctrl (ULK3): 79 % Ctrl | % Ctrl (KIT(A829P)): 51 % Ctrl | % Ctrl (VEGFR2): 84 % Ctrl | % Ctrl (MST1): 98 % Ctrl | % Ctrl (KIT-autoinhibited): 90 % Ctrl | % Ctrl (CSNK1G3): 80 % Ctrl | % Ctrl (CAMK2G): 100 % Ctrl | % Ctrl (EGFR(L858R)): 93 % Ctrl | % Ctrl (TEC): 81 % Ctrl | % Ctrl (EGFR(S752-I759del)): 100 % Ctrl | % Ctrl (TRPM6): 80 % Ctrl | % Ctrl (MLK1): 92 % Ctrl | % Ctrl (ROCK1): 67 % Ctrl
